According to PubChem BioAssay (NCI):
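Cultured in 96-well plates, cells were exposed to test compound for 48 hours across five concentrations. Definition used: TGI = concentration required for complete inhibition of growth.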

Legend:
Assay in all cases: inhibition of tumour cell growth, NCI panel, 48 h
RPMI-8226 leukemia = tested on: RPMI-8226 leukemia
OVCAR-5 ovarian = tested on: OVCAR-5 ovarian
RXF-631 renal = tested on: RXF-631 renal
CAKI-1 renal = tested on: CAKI-1 renal
HOP-92 NSCLC = tested on: HOP-92 NSCLC
SNB-19 CNS = tested on: SNB-19 CNS
LOX IMVI melanoma = tested on: LOX IMVI melanoma
DMS 114 small cell lung = tested on: DMS 114 small cell lung
SF-295 CNS = tested on: SF-295 CNS
K-562 leukemia = tested on: K-562 leukemia
OVCAR-8 ovarian = tested on: OVCAR-8 ovarian
DLD-1 colon = tested on: DLD-1 colon
EKVX NSCLC = tested on: EKVX NSCLC
KM20L2 colon = tested on: KM20L2 colon
A549 NSCLC = tested on: A549 NSCLC
OVCAR-4 ovarian = tested on: OVCAR-4 ovarian
CCRF-CEM leukemia = tested on: CCRF-CEM leukemia
UO-31 renal = tested on: UO-31 renal
DMS 273 small cell lung = tested on: DMS 273 small cell lung
RXF 393 renal = tested on: RXF 393 renal
SNB-75 CNS = tested on: SNB-75 CNS
HCT-15 colon = tested on: HCT-15 colon
SK-MEL-5 melanoma = tested on: SK-MEL-5 melanoma
IGROV1 ovarian = tested on: IGROV1 ovarian
XF 498 CNS = tested on: XF 498 CNS
COLO 205 colon = tested on: COLO 205 colon
UACC-62 melanoma = tested on: UACC-62 melanoma
NCI-H460 lung = tested on: NCI-H460 lung
MOLT-4 leukemia = tested on: MOLT-4 leukemia
ACHN renal = tested on: ACHN renal
HL-60(TB) leukemia = tested on: HL-60(TB) leukemia
U251 CNS = tested on: U251 CNS
TK-10 renal = tested on: TK-10 renal
M14 melanoma = tested on: M14 melanoma
UACC-257 melanoma = tested on: UACC-257 melanoma
SNB-78 CNS = tested on: SNB-78 CNS
NCI-H23 lung = tested on: NCI-H23 lung
SW-620 colon = tested on: SW-620 colon
SN12C renal = tested on: SN12C renal
HCT-116 colon = tested on: HCT-116 colon
SK-MEL-28 melanoma = tested on: SK-MEL-28 melanoma
M19-MEL melanoma = tested on: M19-MEL melanoma
HOP-18 NSCLC = tested on: HOP-18 NSCLC
HT29 colon = tested on: HT29 colon
SK-OV-3 ovarian = tested on: SK-OV-3 ovarian
SK-MEL-2 melanoma = tested on: SK-MEL-2 melanoma
NCI-H522 lung = tested on: NCI-H522 lung
A498 renal = tested on: A498 renal
OVCAR-3 ovarian = tested on: OVCAR-3 ovarian
SF-539 CNS = tested on: SF-539 CNS
SF-268 CNS = tested on: SF-268 CNS
KM12 colon = tested on: KM12 colon
MALME-3M melanoma = tested on: MALME-3M melanoma
LXFL 529 NSCLC = tested on: LXFL 529 NSCLC
HOP-62 NSCLC = tested on: HOP-62 NSCLC
786-0 renal = tested on: 786-0 renal
NCI-H226 lung = tested on: NCI-H226 lung
HCC-2998 colon = tested on: HCC-2998 colon
SR leukemia = tested on: SR leukemia

COc1cc(C2C(C(=O)O)=C(CO)Oc3cc4c(cc32)OCO4)cc(OC)c1OC (stereo unspecified)
TGI (RPMI-8226 leukemia): > 100 µM
TGI (OVCAR-5 ovarian): > 100 µM
TGI (RXF-631 renal): > 100 µM
TGI (CAKI-1 renal): > 100 µM
TGI (HOP-92 NSCLC): > 100 µM
TGI (SNB-19 CNS): > 100 µM
TGI (LOX IMVI melanoma): > 100 µM
TGI (DMS 114 small cell lung): > 100 µM
TGI (SF-295 CNS): > 100 µM
TGI (K-562 leukemia): > 100 µM
TGI (OVCAR-8 ovarian): > 100 µM
TGI (DLD-1 colon): > 100 µM
TGI (EKVX NSCLC): > 100 µM
TGI (KM20L2 colon): > 100 µM
TGI (A549 NSCLC): > 100 µM
TGI (OVCAR-4 ovarian): > 100 µM
TGI (CCRF-CEM leukemia): > 100 µM
TGI (UO-31 renal): > 100 µM
TGI (DMS 273 small cell lung): > 100 µM
TGI (RXF 393 renal): > 100 µM
TGI (SNB-75 CNS): > 100 µM
TGI (HCT-15 colon): > 100 µM
TGI (SK-MEL-5 melanoma): > 100 µM
TGI (IGROV1 ovarian): > 100 µM
TGI (XF 498 CNS): > 100 µM
TGI (COLO 205 colon): > 100 µM
TGI (UACC-62 melanoma): > 100 µM
TGI (NCI-H460 lung): > 100 µM
TGI (MOLT-4 leukemia): > 100 µM
TGI (ACHN renal): > 100 µM
TGI (HL-60(TB) leukemia): > 100 µM
TGI (U251 CNS): > 100 µM
TGI (TK-10 renal): > 100 µM
TGI (M14 melanoma): > 100 µM
TGI (UACC-257 melanoma): > 100 µM
TGI (SNB-78 CNS): > 100 µM
TGI (NCI-H23 lung): > 100 µM
TGI (SW-620 colon): > 100 µM
TGI (SN12C renal): > 100 µM
TGI (HCT-116 colon): > 100 µM
TGI (SK-MEL-28 melanoma): > 100 µM
TGI (M19-MEL melanoma): > 100 µM
TGI (HOP-18 NSCLC): > 100 µM
TGI (HT29 colon): > 100 µM
TGI (SK-OV-3 ovarian): > 100 µM

C[C@]12CCC3[C@@H](CC[C@@H]4c5nonc5CC[C@]34C)C1CCC2=O (stereo partly specified)
TGI (RPMI-8226 leukemia): 44 µM
TGI (SK-MEL-2 melanoma): 56.5 µM
TGI (OVCAR-5 ovarian): > 100 µM
TGI (NCI-H522 lung): 50.1 µM
TGI (RXF-631 renal): > 100 µM
TGI (CAKI-1 renal): 95.5 µM
TGI (HOP-92 NSCLC): 51.5 µM
TGI (SNB-19 CNS): > 100 µM
TGI (A498 renal): 68.2 µM
TGI (OVCAR-3 ovarian): 40.4 µM
TGI (LOX IMVI melanoma): 39.5 µM
TGI (DMS 114 small cell lung): 53.9 µM
TGI (SF-295 CNS): 79.3 µM
TGI (K-562 leukemia): > 100 µM
TGI (OVCAR-8 ovarian): > 100 µM
TGI (EKVX NSCLC): 83.1 µM
TGI (SF-539 CNS): 45.9 µM
TGI (KM20L2 colon): > 100 µM
TGI (A549 NSCLC): 92.4 µM
TGI (OVCAR-4 ovarian): 84 µM
TGI (CCRF-CEM leukemia): 61.3 µM
TGI (SF-268 CNS): > 100 µM
TGI (UO-31 renal): 39 µM
TGI (DMS 273 small cell lung): 47.1 µM
TGI (KM12 colon): 50.2 µM
TGI (RXF 393 renal): 78.3 µM
TGI (SNB-75 CNS): 93.6 µM
TGI (HCT-15 colon): > 100 µM
TGI (SK-MEL-5 melanoma): 31.4 µM
TGI (IGROV1 ovarian): > 100 µM
TGI (XF 498 CNS): 44.4 µM
TGI (COLO 205 colon): 33.3 µM
TGI (UACC-62 melanoma): 52.3 µM
TGI (NCI-H460 lung): 39.7 µM
TGI (MOLT-4 leukemia): 61 µM
TGI (ACHN renal): 77.7 µM
TGI (MALME-3M melanoma): 52.6 µM
TGI (HL-60(TB) leukemia): 38.9 µM
TGI (U251 CNS): 32.5 µM
TGI (TK-10 renal): > 100 µM
TGI (M14 melanoma): 37 µM
TGI (UACC-257 melanoma): 40.4 µM
TGI (SNB-78 CNS): 99.7 µM
TGI (NCI-H23 lung): 92.5 µM
TGI (SW-620 colon): > 100 µM
TGI (LXFL 529 NSCLC): 59.8 µM
TGI (SN12C renal): 47.3 µM
TGI (HOP-62 NSCLC): > 100 µM
TGI (HCT-116 colon): 31.7 µM
TGI (SK-MEL-28 melanoma): 63.8 µM
TGI (786-0 renal): 64.3 µM
TGI (NCI-H226 lung): 62.7 µM
TGI (M19-MEL melanoma): 52.8 µM
TGI (HOP-18 NSCLC): > 100 µM
TGI (HT29 colon): 41.1 µM
TGI (SK-OV-3 ovarian): > 100 µM

CCc1ccccc1N1C(=O)C(=O)C(c2nc3ccccc3s2)C(=O)C1=O
TGI (RPMI-8226 leukemia): > 100 µM
TGI (SK-MEL-2 melanoma): > 100 µM
TGI (OVCAR-5 ovarian): > 100 µM
TGI (NCI-H522 lung): > 100 µM
TGI (HCC-2998 colon): > 100 µM
TGI (RXF-631 renal): > 100 µM
TGI (CAKI-1 renal): > 100 µM
TGI (HOP-92 NSCLC): > 100 µM
TGI (SNB-19 CNS): > 100 µM
TGI (OVCAR-3 ovarian): > 100 µM
TGI (LOX IMVI melanoma): > 100 µM
TGI (DMS 114 small cell lung): > 100 µM
TGI (SF-295 CNS): > 100 µM
TGI (K-562 leukemia): > 100 µM
TGI (OVCAR-8 ovarian): > 100 µM
TGI (DLD-1 colon): > 100 µM
TGI (EKVX NSCLC): > 100 µM
TGI (SF-539 CNS): > 100 µM
TGI (KM20L2 colon): > 100 µM
TGI (A549 NSCLC): > 100 µM
TGI (OVCAR-4 ovarian): > 100 µM
TGI (CCRF-CEM leukemia): > 100 µM
TGI (SF-268 CNS): > 100 µM
TGI (UO-31 renal): > 100 µM
TGI (KM12 colon): > 100 µM
TGI (RXF 393 renal): > 100 µM
TGI (HCT-15 colon): > 100 µM
TGI (SK-MEL-5 melanoma): > 100 µM
TGI (IGROV1 ovarian): > 100 µM
TGI (XF 498 CNS): > 100 µM
TGI (UACC-62 melanoma): > 100 µM
TGI (NCI-H460 lung): > 100 µM
TGI (MOLT-4 leukemia): > 100 µM
TGI (ACHN renal): > 100 µM
TGI (MALME-3M melanoma): > 100 µM
TGI (HL-60(TB) leukemia): > 100 µM
TGI (U251 CNS): > 100 µM
TGI (TK-10 renal): > 100 µM
TGI (M14 melanoma): > 100 µM
TGI (UACC-257 melanoma): > 100 µM
TGI (SNB-78 CNS): > 100 µM
TGI (NCI-H23 lung): > 100 µM
TGI (SW-620 colon): > 100 µM
TGI (LXFL 529 NSCLC): > 100 µM
TGI (SN12C renal): > 100 µM
TGI (HOP-62 NSCLC): > 100 µM
TGI (SR leukemia): > 100 µM
TGI (HCT-116 colon): > 100 µM
TGI (SK-MEL-28 melanoma): > 100 µM
TGI (786-0 renal): > 100 µM
TGI (NCI-H226 lung): > 100 µM
TGI (M19-MEL melanoma): > 100 µM
TGI (HOP-18 NSCLC): > 100 µM
TGI (HT29 colon): > 100 µM
TGI (SK-OV-3 ovarian): > 100 µM
